Common to all, as to test: microbe, parasite or virus in culture
What all share (format): cell-based, influenza A virus
Common to all, as to details: for Drug sensitivity: sensitivity of the strain to the named drug

Assay [1] has as its system A/Washington/29/2009 (H1N1).
Assay [2] relates to A/North Carolina/39/2009 (H1N1).
The test system of another assay is A/Texas/04/2009 (H1N1).
In assay [3] the test system is A/Denmark/528/2009 (H1N1).
In the next assay the test system is A/WSN/1933 (H1N1).
The test system of assay [4] is A/California/07/2009 (H1N1).
In assay [5] the test system is A/Switzerland/9715293/2013 (H3N2).

SMILES strings stand for the structures.

In general, EC50 refers to the concentration needed to bring the measured effect to its halfway point. A lower EC50 goes with an effect from little substance.

Consider `NC12CC3CC(CC(C3)C1)C2` [Amantadine, amantadine], for which the Drug sensitivity entry in assay [1] is “Amantadine Resistant Oseltamivir Resistant”; in assay [2], “Amantadine Resistant Oseltamivir Resistant”; in the assay with A/Texas/04/2009 (H1N1), “Amantadine Resistant Oseltamivir Resistant”; in assay [3], “Amantadine Resistant Oseltamivir Resistant”; in the assay on A/WSN/1933 (H1N1), “Amantadine Resistant Oseltamivir Sensitive”; in assay [4], “Amantadine Resistant Oseltamivir Sensitive”. In addition, the Drug sensitivity entry in assay [5] was “Amantadine Resistant Oseltamivir Sensitive”.
As for `Cc1cc(OCc2nnc(SC3CCCC3)n2-c2cccnc2)ccc1-c1ccc(S(C)(=O)=O)cc1` [NMS-873], the “SI (selectivity index)” value stood at 66 in assay [1] (CC50/EC50); 78 in assay [2] (CC50/EC50); 71 with A/Texas/04/2009 (H1N1) (CC50/EC50); 70 in assay [3] (CC50/EC50); 74 with A/WSN/1933 (H1N1) (CC50/EC50); 49 in assay [4] (CC50/EC50). Besides, in assay [5] (CC50/EC50), the “SI (selectivity index)” value came to 129. Besides, the concentration giving a half-maximal response (EC50) in assay [1] (Influenza A virus, H1N1, MDCK) stood at 0.041 ± 0.005 µM; in assay [2] (Influenza A virus, H1N1, MDCK), 0.035 ± 0.005 µM; in the assay with A/Texas/04/2009 (H1N1) (Influenza A virus, H1N1, MDCK), 0.038 ± 0.005 µM; in assay [3] (Influenza A virus, H1N1, MDCK), 0.039 ± 0.004 µM; in the assay on A/WSN/1933 (H1N1) (Influenza A virus, H1N1|WSN, MDCK), 0.037 ± 0.002 µM; in assay [4] (Influenza A virus, H1N1, MDCK), 0.056 ± 0.005 µM. The EC50 in assay [5] (Influenza A virus, H3N2, MDCK) turned out to be 0.021 ± 0.002 µM.
`CCC(CC)O[C@@H]1C=C(C(=O)O)C[C@H](N)[C@H]1NC(C)=O` [Oseltamivir carboxylate]: the Drug sensitivity entry is listed as “Amantadine Resistant Oseltamivir Resistant” in assay [1]; “Amantadine Resistant Oseltamivir Resistant” in assay [2]; “Amantadine Resistant Oseltamivir Resistant” in the assay on A/Texas/04/2009 (H1N1); “Amantadine Resistant Oseltamivir Resistant” in assay [3]; “Sensitive” in the assay on A/WSN/1933 (H1N1); “Sensitive” in assay [4]. Also, in assay [5], the Drug sensitivity entry is “Sensitive”.

(Values after article PMC6482079 (European journal of pharmaceutical sciences : official …, 2019).)
